Test results taken from patent publication US8658188B2, “Radio-opaque bioactive glass materials” (Universitat Zurich, priority 2009, dated 2014).

Assay: Radiopacity assessment against an aluminum step wedge
Format: physicochemical
Settings: paste in 0.9 wt % NaCl saline, 60% weight to volume, 1 mm thick, X-ray 65 kV, n=3
Excerpt: According to Waltimo et al., 2009, J Dent Res, 88, 235-8, the amount of bioactive particles per volume plays an important role in the closed environment of a root canal. To achieve a denser packing of the naturally relatively light nanomaterial (low-density powder with snow-like behaviour), uniaxial pressure of 2.6 MPa was applied for 30 seconds. […] The thus improved filler was compared to classical (flame derived) bioactive particles (no bismuth), to mechanical mixtures of bioactive particles and barium sulphate (50/wt %) and bismuth oxide (80/20 wt %; 50/50 wt %). Calcium hydroxide with or without additional barium sulphate was used as commercially available control material. Bovine dentine slices with a thickness of 1 mm served as control for the clear distinction between material and the surrounding tissue in clinical situations. Prior to use, the corresponding powder was homogeneously mixed with unbuffered physiological saline (0.9 wt % NaCl) to obtain a final weight to volume ratio of 60% (plastic limit, i.e. the maximum amount of powder per liquid to yield a paste-like suspension). A radiograph was taken after preparing the paste and placing it in a polycarbonate mould (10 mm diameter, 1 mm thick). Specimens were placed on a radio-graphic film (Digora, Finland) together with an aluminum step-wedge with a variable thickness from 0.5 mm to 6 mm (0.5 mm and 1 mm increments). […]

SMILES: [Ca+2].[OH-].[OH-] [calcium hydroxide, Calcium hydroxide]
- aluminum equivalent (radiopacity): 0.6 mm
